From publication PMC10269561, “Absence of Clinically Meaningful Drug-Drug Interactions with Rezafungin: Outcome of Investigations” (Microbiology Spectrum, 2023)
Read-outs that look alike come from different tables or passages of the source.

Legend:
[1] = Study 2: phase 1 open-label crossover DDI study, plasma PK of oral immunosuppressant/oncology drugs alone vs with i.v. rezafungin; conditions: for AUC0–t, geometric mean ratio (drug + rezafungin / drug alone) / AUC0–∞, geometric mean ratio (drug + rezafungin / drug alone) / Cmax, geometric mean ratio (drug + rezafungin / drug alone): rezafungin 200 mg i.v., geometric LSM ratio x 100, ANOVA; for AUC0–t, geometric mean ratio (drug + rezafungin / drug alone) / AUC0–∞, geometric mean ratio (drug + rezafungin / drug alone) / Cmax, geometric mean ratio (drug + rezafungin / drug alone) / Magnitude of decrease in Cmax with rezafungin vs drug alone: mycophenolic acid analyte for mycophenolate mofetil
Protocol: (§1) Both were phase 1, single-center, open-label, crossover inpatient studies that were conducted in the United States in healthy adults (study 1, aged 26 to 55 years; study 2, aged 21 to 59 years). The studies were compliant with the International Council for Harmonisation of Technical Requirements for Pharmaceuticals for Human Use E6 guideline for good clinical practice ([54]) and the Declaration of Helsinki. The study protocols were approved by the institutional review board associated with the study site, and all subjects provided written informed consent.
(§2) After screening, subjects were admitted to the CRU on day −17 (prior to the first rezafungin dose) and were discharged on day 22. Rezafungin was dosed via i.v. infusion over 1 h at 400 mg on day 1 and 200 mg on day 8 and day 15. The oral drugs to be tested for interactions were each administered twice on a schedule designed to allow washout between doses: once alone and once while receiving rezafungin (Fig. 4B). The total duration of treatment was approximately 84 days, which included 45 days of screening and 39 days of treatment in the CRU.
(§3) In study 1, predose PK blood samples were collected on each dosing day ≤60 min prior to the administration of the substrate drugs with or without rezafungin. Multiple blood samples were collected relative to each dose, with collection times ranging from 15 min to 168 h postdose, depending on the PK profile of each probe substrate drug (Table S5). For study 2, multiple blood samples were collected, and the timing of collection varied according to the PK profile of each coadministered drug from predose to 96 h postdose (Table S6). PK blood samples were collected for rezafungin at sample times ranging from predose to 168 h postdose.
(§4) For both studies, validated liquid chromatography-tandem mass spectrometry (LC-MS/MS) methods were used for PK assessments to analyze the concentrations of rezafungin and coadministered drugs. All plasma concentrations and actual blood sampling times were subjected to noncompartmental PK analysis. PK parameter calculations were performed using noncompartmental analysis (NCA) (Phoenix WinNonlin version 8.0 or higher). The PK parameters analyzed included Cmax; the time to reach the maximum observed plasma concentration (Tmax); AUC0–t (using the log-linear trapezoidal rule, where t was the last time point with a measurable concentration); AUC0–∞ (calculated as AUC0–t + Clast/λz); the AUC from 0 to 168 h (AUC0–168); the percentage of AUC0–∞ extrapolated (AUC%Extrap); the terminal elimination rate constant, determined by linear regression of the terminal linear segment of the log concentration-versus-time curve (λz); and the elimination half-life (t1/2), calculated as ln(2)/λz.
(§5) The primary analysis of the drug interaction effect on substrate drugs following rezafungin administration was assessed by the ratio of the geometric least-squares (LS) mean of each substrate drug administered with rezafungin to that without rezafungin. […] PK parameters were statistically analyzed using an analysis of variance (ANOVA) model. […] However, noncompliance with these no-effect boundaries was not considered evidence of a significant DDI. Statistical analyses were performed using SAS (version 9.4) and the mixed procedure. Adverse events were descriptively summarized.

[2] = clinical study, U.S. prescribing information; cited from earlier work
[3] = Study 2 safety and tolerability (TEAEs); conditions: Study 2; one subject each
Protocol: as §2
In both studies, the safety population included all subjects who received any amount of the study drug. In study 1, the rezafungin safety population included all subjects who received any amount of rezafungin. Safety assessments included vital signs (temperature, heart rate, blood pressure, and respiratory rate), safety laboratory evaluations (hematology assessment, serum chemistry panel, and urinalysis), physical examinations (complete and symptom directed), and EKGs.
Microbiology Spectrum Supplementary materials
Abbreviations: TEAE = treatment-emergent adverse event.
N = number of subjects in the safety population; n = number of subjects in a sample.
Notes: Each TEAE was counted only once for each subject within each System Organ Class and Preferred Term.

[4] = Protocol: as §1
After screening, subjects were admitted to the clinical research unit (CRU) prior to the first dose of rezafungin (from day −22) and were discharged from the CRU on day 22. Nine oral substrate drugs were administered as part of a cocktail containing two or more drugs once before and once after receiving rezafungin on a schedule designed to allow the washout of the drugs in the cocktail between doses and limit interactions with other drugs (Fig. 4A). […] A loading dose of rezafungin for injection (600 mg) was administered over 1 h on day 1, followed by two once-weekly 400-mg doses over 1 h on days 10 and 15. Due to a short delay in the availability of the investigation study drug, the second once-weekly dose of rezafungin and the second set of oral substrate drugs were administered on day 10 instead of day 8, although the time between doses remained sufficient for all originally planned PK samplings through 96 h postdose and for the adequate washout of the substrate drugs. The total duration of treatment was up to 89 days, including 45 days of screening and 44 days of treatment in the CRU.
as §3, §4, §5

[5] = Study 2, healthy subjects, oral cyclosporine 200 mg, ibrutinib 280 mg or mycophenolate mofetil 500 mg (analyte mycophenolic acid) without rezafungin, plasma, LC-MS/MS, NCA
[6] = Study 2, healthy subjects, oral ibrutinib 280 mg (day 8) or mycophenolate mofetil 500 mg (day 15, cohort 1; analyte mycophenolic acid) with i.v. rezafungin 200 mg, plasma, LC-MS/MS, NCA
[7] = Study 2, from geometric mean ratio
[8] = Study 2, healthy subjects (cohort 2), oral venetoclax 50 mg with i.v. rezafungin 200 mg (day 15), plasma, LC-MS/MS, NCA
[9] = Study 2, healthy subjects (cohort 2), oral venetoclax 50 mg without rezafungin, plasma, LC-MS/MS, NCA
[10] = Study 1, healthy subjects, oral metformin 500 mg, pitavastatin 2 mg (day 10) or caffeine 100 mg, efavirenz 50 mg, midazolam 2 mg, digoxin 0.25 mg (day 15) with i.v. rezafungin 400 mg, plasma, LC-MS/MS, NCA
[11] = Study 1, healthy subjects, oral repaglinide 1 mg, metformin 500 mg, pitavastatin 2 mg, caffeine 100 mg, efavirenz 50 mg, midazolam 2 mg or digoxin 0.25 mg without rezafungin, plasma, LC-MS/MS, NCA
[12] = Study 1, rezafungin 400 mg i.v. (day 10 or 15), geometric LSM ratio x 100, ANOVA

Which results are given for `COc1c(C)c2c(c(O)c1C/C=C(\C)CCC(=O)OCCN1CCOCC1)C(=O)OC2` [Mycophenolate mofetil]?
AUC0–t, geometric LSM value, alone [1, 5]: 25,299.70 ng · h/mL; AUC0–∞, geometric LSM value, alone [1, 5]: 27,954.20 ng · h/mL; Cmax, geometric LSM value, alone [1, 5]: 9,541.20 ng/mL; AUC0–t, geometric LSM value, + rezafungin [1, 6]: 25,054.90 ng · h/mL; AUC0–∞, geometric LSM value, + rezafungin [1, 6]: 28,257.00 ng · h/mL; Cmax, geometric LSM value, + rezafungin [1, 6]: 7,740.58 ng/mL; Observation, AUC (change with rezafungin relative to drug alone) ([1]; Study 2, class symbol, AUC0–t and AUC0–∞ unless otherwise noted): ↔ (no change (the ratio of the PK parameter value varied by up to ~10%, and the 90% CI was within 80 to 125%)); AUC0–t, geometric mean ratio (drug + rezafungin / drug alone) ([1]; Study 2): 99.03%; AUC0–∞, geometric mean ratio (drug + rezafungin / drug alone) ([1]; Study 2): 101.08%; Cmax, geometric mean ratio (drug + rezafungin / drug alone) ([1]; Study 2): 81.13%

For `COc1c(C)c2c(c(O)c1C/C=C(\C)CCC(=O)O)C(=O)OC2` [Mycophenolic acid], which “Magnitude of decrease in Cmax with rezafungin vs drug alone” value [1, 7] is on record?
Its value is 19%.

Which results are given for Caspofungin?
increase in AUC of caspofungin by cyclosporine [2]: approximately 35%; reduction of trough concentrations of caspofungin by rifampicin [2]: 30%

With `CC1(C)CCC(CN2CCN(c3ccc(C(=O)NS(=O)(=O)c4ccc(NCC5CCOCC5)c([N+](=O)[O-])c4)c(Oc4cnc5[nH]ccc5c4)c3)CC2)=C(c2ccc(Cl)cc2)C1` [Venetoclax] as the molecule, how does the “AUC0–t, geometric LSM value, + rezafungin” value [1, 8] read?
Its value is 2,693.83 pg · h/mL.

And the “AUC0–∞, geometric LSM value, + rezafungin” value [1, 8]?
The value was 2,781.57 pg · h/mL.

What about the “AUC0–t, geometric LSM value, alone” value [1, 9] of the same molecule?
The value was 3,004.70 pg · h/mL.

And the “AUC0–∞, geometric LSM value, alone” value [1, 9]?
The value was 3,082.58 pg · h/mL.

And the “Magnitude of decrease in AUC with rezafungin vs drug alone” value ([1]; Study 2, AUC0–t and AUC0–∞, from geometric mean ratio)?
Its value is roughly 10%.

What about the “Observation, Cmax (change with rezafungin relative to drug alone)” value ([1]; Study 2, class symbol) of the same molecule?
Its value is “↔ (no change (the ratio of the PK parameter value varied by up to ~10%, and the 90% CI was within 80 to 125%))”.

And the “AUC0–t, geometric mean ratio (drug + rezafungin / drug alone)” value ([1]; Study 2)?
The value was 89.65%.

What about the “AUC0–∞, geometric mean ratio (drug + rezafungin / drug alone)” value ([1]; Study 2) of the same molecule?
Its value is 90.24%.

What about the “Cmax, geometric mean ratio (drug + rezafungin / drug alone)” value ([1]; Study 2) of the same molecule?
The value was 94.84%.

And the “severe TEAE deemed by the investigator to be related to the drug” value [3]?
The value was “abdominal pain”.

For `C=CC(=O)N1CCC[C@@H](n2nc(-c3ccc(Oc4ccccc4)cc3)c3c(N)ncnc32)C1` [Ibrutinib], which “Magnitude of decrease in Cmax with rezafungin vs drug alone” value [1, 7] is on record?
The value was roughly 17%.

What does the source list for `Cc1ncc2n1-c1ccc(Cl)cc1C(c1ccccc1F)=NC2` [Midazolam]?
AUC0–t, geometric LSM value, + rezafungin [4, 10]: 21.62 ng·h/mL; AUC0–∞, geometric LSM value, + rezafungin [4, 10]: 23.67 ng·h/mL; Cmax, geometric LSM value, + rezafungin [4, 10]: 8.70 ng/mL; AUC0–t, geometric LSM value, alone [4, 11]: 21.39 ng·h/mL; AUC0–∞, geometric LSM value, alone [4, 11]: 23.25 ng·h/mL; Cmax, geometric LSM value, alone [4, 11]: 9.00 ng/mL; Change in exposure of the oral probe drug on coadministration of i.v. rezafungin vs dosing alone ([4]; Study 1, 90% CIs of GMRs of Cmax, AUC0–t, AUC0–∞ within 80 to […]): did not result in statistically significant changes; Observation, Cmax (change with rezafungin relative to drug alone) ([4]; Study 1, class symbol): ↔ (no change (the ratio of the PK parameter value varied by up to ~10%, and the 90% CI was within 80 to 125%)); Observation, AUC (change with rezafungin relative to drug alone) ([4]; Study 1, class symbol, AUC0–t and AUC0–∞ unless otherwise noted): ↔ (no change (the ratio of the PK parameter value varied by up to ~10%, and the 90% CI was within 80 to 125%)); AUC0–t, geometric mean ratio (drug + rezafungin / drug alone) [4, 12]: 101.06%; AUC0–∞, geometric mean ratio (drug + rezafungin / drug alone) [4, 12]: 101.78%; Cmax, geometric mean ratio (drug + rezafungin / drug alone) [4, 12]: 96.73%
